According to patent US4374261A, “1-Ethyl-1,4-dihydro-6-(2-naphthyl)-4-oxo-nicotinic acid and esters thereof” (Hoffmann-La Roche Inc., priority 1981, dated 1983):

Assays:
mouse = assay: LD50 (mouse), acute toxicity; format: in vivo
rat = assay: Turning rat test (unilateral 6-OHDA lesion of the medial forebrain bundle); format: in vivo
Procedure: Female rats weighing 150 g are anaesthetised with pentobarbital (50 mg kg^-1 i.p.) and fixed in a stereotaxic apparatus (David Kopf). A unilateral (right side) injection into the MFB (medial forebrain bundle) or 6-OHDA (6-hydroxy-dopamine), 3 μg as base, dissolved in 4 μl of Ringer solution containing 0.02% ascorbic acid, is carried out through a stainless-steel cannula (diameter 0.3 mm) connected to a microsyringe. The liquid is injected at a speed of 1 μl min^-1 by means of a high precision infusion pump. In order to reach the MFB (medial forebrain bundle), the following conditions are used: A=+3.8 mm, L (right)=0.9 mm, V=-3 mm according to the Atlas of Konig and Klippel.
After 3 weeks recovery period, the operated rats are injected with apomorphine, 1 mg kg^1- i.p.. Those animals showing a regular contralateral (i.e., away from the lesioned side) turning, recorded automatically during 1 hour in a rotometer, are selected for further experiments. At least one week is allowed between each injection of screening compounds. […]
The total number of ipsilateral or contralateral turns (full rotation around the vertical axes of the body) made by each rat, is automatically recorded over the time (usually 1 hour). 5 rats are injected for each dose and the mean of total turns per hour is determined.
A compound is said active, if it produces more than 100 turns/hour. […] The results are expressed as: […]

[1] = vs d-amphetamine and d-methamphetamine (Table I)

CCn1cc(C(=O)O)c(=O)cc1-c1ccc2ccccc2c1 [1-ethyl-1,4-dihydro-6-(2-naphthyl)-4-oxonicotinic acid]
LD50 compared with d-amphetamine and d-methamphetamine (mouse; [1]): substantially lower LD50
LD50 compared with nomifensin (mouse; vs nomifensin): about the same LD50
strength of action compared with d-amphetamine and d-methamphetamine (rat; [1]): about the same strength of action
activity compared with nomifensin (rat; vs nomifensin): substantially superior to nomifensin
